# Data reported in patent US4410518A, “N-Phosphinoaminosulfinylcarbamate esters and their use as insecticides” (priority 1982, dated 1983).
# Where two headings read alike, the source gives them in different places.
# Columns and labels:
# [1] = mammalian toxicity in mice (oral); details: mouse, in vivo, corn oil carrier, Swiss white mice
# Procedure: Mammalian toxicity was determined against Swiss white mice. The test compound was applied orally using corn oil as the carrier. Results are given as LD50 in mg of compound per kg body weight.
# (§1) In that table the term "LD50 " represents the dose needed to kill 50% of the test animals. In interpreting the values in Table 1 below, the lower the value for LD50 for house flies, the greater the insecticidal potency or toxicity of that particular compound. On the other hand, the higher the value of LD50 for mice, the lower the mammalian toxicity or the greater is the mammalian safety of such compound.
# [2] = test system: house flies, Musca domestica; test: insecticidal activity against house flies (topical, 24 h mortality); assay type: in vivo; details: for LD50: Musca domestica, read-out: House flies LD50
# Procedure: Representative carbamate esters of the invention were tested for insecticidal activity against house flies, Musca domestica. Stock 1% concentrated solutions of each of the test compounds were made in acetone, and such solutions diluted with acetone to a concentration of 0.001-0.1%. House flies were treated topically on the notum by 1 μl of each of the diluted acetone solutions and percent mortality was counted 24 hours after application. The insects were held at a constant temperature of 60° F. Results are given in μg/g.
# as §1
# [3] = test system: house flies, Musca domestica; details: 'is known to have', no unit printed beside the value; cited from earlier work
# [4] = topical on the notum, 1 μl acetone solution, 24 hours after application
Structure (SMILES),LD50 [1],"LD50 [2, 4]",other results
"CCOP(=S)(OCC)N(C)[S+]([O-])N(C)C(=O)ON=C(SC)C(=O)N(C)C (centres unmarked) [Example 21, methyl 2-(dimethylamino)-N-[[[[[(diethoxyphosphinothioyl)methylamino]sulfinyl]methylamino]carbonyl]oxy]-2-oxoethanimidothioate]",23 mg/kg,15 mg/kg,
"CNC(=O)Oc1cccc2c1OC(C)(C)C2 [carbofuran, 2,3-dihydro-2,2-dimethyl-7-benzofuranyl methylcarbamate]",,,"LD50 for house flies (carbofuran, known) [3]: about 6.5"
"CSC(=NOC(=O)N(C)[S+]([O-])N(C)P1(=S)OCC(C)(C)CO1)C(=O)N(C)C (centres unmarked) [Example 25, methyl 2-(dimethylamino)-N-[[[[[(5,5-dimethyl-2-thioxo-1,3,2-dioxaphosphorinan-2-yl)(methyl)amino]sulfinyl]methylamino]carbonyl]oxy]-2-oxoethanimidothioate]",25 mg/kg,150 mg/kg,
"CCOP(=S)(OCC)N(C1CCCCC1)[S+]([O-])N(C)C(=O)ON=C(C)SC (centres unmarked) [Example 18, methyl N-[[[[[(diethoxyphosphinothioyl)cyclohexylamino]sulfinyl]methylamino]carbonyl]oxy]ethanimidothioate]",,18 mg/kg,
"CCCCCCN([S+]([O-])N(C)C(=O)Oc1cccc2c1OC(C)(C)C2)P1(=S)OCC(C)(C)CO1 (centres unmarked) [Example 6, 2,3-dihydro-2,2-dimethyl-7-benzofuranyl[[(5,5-dimethyl-2-thioxo-1,3,2-dioxaphosphorinan-2-yl)hexylamino]sulfinyl]methylcarbamate]",105 mg/kg,,
"CCCN([S+]([O-])N(C)C(=O)ON=C(C)SC)P(=S)(OCC)OCC (centres unmarked) [Example 13, methyl N-[[[[[(diethoxyphosphinothioyl)propylamino]sulfinyl]methylamino]carbonyl]oxy]ethanimidothioate]",120 mg/kg,8 mg/kg,
"CCCCCCCCCCCCN([S+]([O-])N(C)C(=O)Oc1cccc2c1OC(C)(C)C2)P(=S)(OCC)OCC (centres unmarked) [Example 4, 2,3-dihydro-2,2-dimethyl-7-benzofuranyl[[(diethoxyphosphinothioyl)dodecylamino]sulfinyl]methylcarbamate]",> 1000 mg/kg,,
"CCCCCCN([S+]([O-])N(C)C(=O)ON=C(C)SC)P(=S)(OCC)OCC (centres unmarked) [Example 17, Methyl N-[[[[[(diethoxyphosphinothioyl)hexylamino]sulfinyl]methylamino]carbonyl]oxy]ethanimidothioate]",250 mg/kg,23 mg/kg,
"CCOP(=S)(OCC)N(CC)[S+]([O-])N(C)C(=O)ON=C(C)SC (centres unmarked) [Example 12, methyl N-[[[[[(diethoxyphosphinothioyl)ethylamino]sulfinyl]methylamino]carbonyl]oxy]ethanimidothioate]",,13 mg/kg,
"CCN([S+]([O-])N(C)C(=O)ON=C(C)SC)P1(=S)OCC(C)(C)CO1 (centres unmarked) [Example 20, methyl N-[[[[[(5,5-dimethyl-2-thioxo-1,3,2-dioxaphosphorinan-2-yl)(ethyl)amino]sulfinyl]methylamino]carbonyl]oxy]ethanimidothioate]",,120 mg/kg,
"CCOP(=S)(OCC)N(C(C)CC)[S+]([O-])N(C)C(=O)ON=C(C)SC (centres unmarked) [Example 15, methyl N-[[[[[(diethoxyphosphinothioyl)sec-butylamino]sulfinyl]methylamino]carbonyl]oxy]ethanimidothioate]",,10 mg/kg,
"CN(C(=O)Oc1cccc2c1OC(C)(C)C2)[S+]([O-])N(C)P1(=S)OCC(C)(C)CO1 (centres unmarked) [Example 5, 2,3-Dihydro-2,2-dimethyl-7-benzofuranyl[[(5,5-dimethyl-2-thioxo-1,3,2-dioxaphosphorinan-2-yl)methylamino]sulfinyl]methylcarbamate]",70 mg/kg,3 mg/kg,
"CCOP(=S)(OCC)N(C1CCCC1)[S+]([O-])N(C)C(=O)ON=C(C)SC (centres unmarked) [Example 16, methyl N-[[[[[(diethoxyphosphinothioyl)cyclopentylamino]sulfinyl]methylamino]carbonyl]oxy]ethanimidothioate]",,12 mg/kg,
"CSC(C)=NOC(=O)N(C)[S+]([O-])N(C)P1(=S)OCC(C)(C)CO1 (centres unmarked) [Example 19, methyl N-[[[[[(5,5-dimethyl-2-thioxo-1,3,2-dioxaphosphorinan-2-yl)(methyl)amino]sulfinyl]methylamino]carbonyl]oxy]ethanimidothioate]",200 mg/kg,58 mg/kg,
"CCOP(=S)(OCC)N(C)[S+]([O-])N(C)C(=O)ON=C(C)SC (centres unmarked) [Example 11, methyl N-[[[[[(diethoxyphosphinothioyl)methylamino]sulfinyl]methylamino]carbonyl]oxy]ethanimidothioate]",130 mg/kg,12 mg/kg,
"CCOP(=S)(OCC)N(C(C)C)[S+]([O-])N(C)C(=O)ON=C(C)SC (centres unmarked) [Example 14, methyl N-[[[[[(diethoxyphosphinothioyl)isopropylamino]sulfinyl]methylamino]carbonyl]oxy]ethanimidothioate]",,11 mg/kg,
"CCOP(=S)(OCC)N(C)[S+]([O-])N(C)C(=O)Oc1cccc2c1OC(C)(C)C2 (centres unmarked) [Example 1, 2,3-dihydro-2,2-dimethyl-7-benzofuranyl[[(diethoxyphosphinothioyl)methylamino]sulfinyl]methylcarbamate]",65 mg/kg,14 mg/kg,
"CCOP(=S)(OCC)N(C(C)C)[S+]([O-])N(C)C(=O)ON=C(SC)C(=O)N(C)C (centres unmarked) [Example 23, methyl 2-(dimethylamino)-N-[[[[[(diethoxyphosphinothioyl)isopropylamino]sulfinyl]methylamino]carbonyl]oxy]-2-oxoethanimidothioate]",22 mg/kg,10 mg/kg,
"CCCCCCN([S+]([O-])N(C)C(=O)Oc1cccc2c1OC(C)(C)C2)P(=S)(OCC)OCC (centres unmarked) [Example 3, 2,3-dihydro-2,2-dimethyl-7-benzofuranyl[[(diethoxyphosphinothioyl)hexylamino]sulfinyl]methylcarbamate]",140 mg/kg,,"House flies LD50 [2, 4]: 19 µg/g"
"CCOP(=O)(OCC)N(C)[S+]([O-])N(C)C(=O)Oc1cccc2c1OC(C)(C)C2 (centres unmarked) [Example 7, 2,3-dihydro-2,2-dimethyl-7-benzofuranyl[[(diethoxyphosphinyl)methylamino]sulfinyl]methylcarbamate]",,,"LD50 ([2]; topical, 24 h): 19 mg/kg"
"CCOP(=S)(OCC)N(C1CCCC1)[S+]([O-])N(C)C(=O)ON=C(SC)C(=O)N(C)C (centres unmarked) [Example 24, Methyl 2-(dimethylamino)-N-[[[[[(diethoxyphosphinothioyl)cyclopentylamino]sulfinyl]methylamino]carbonyl]oxy]-2-oxoethanimidothioate]",,16 mg/kg,
"CCCN([S+]([O-])N(C)C(=O)Oc1cccc2c1OC(C)(C)C2)P(=S)(OCC)OCC (centres unmarked) [Example 2, 2,3-dihydro-2,2-dimethyl-7-benzofuranyl[[(diethoxyphosphinothioyl)propylamino]sulfinyl]methylcarbamate]",60 mg/kg,16 mg/kg,
"CCN([S+]([O-])N(C)C(=O)ON=C(C)SC)P(=S)(OC)OC (centres unmarked) [Example 10, methyl N-[[[[[(dimethoxyphosphinothioyl)ethylamino]sulfinyl]methylamino]carbonyl]oxy]ethanimidothioate]",,14 mg/kg,
"CCCN([S+]([O-])N(C)C(=O)Oc1cccc2c1OC(C)(C)C2)P(=O)(OCC)OCC (centres unmarked) [Example 8, 2,3-dihydro-2,2-dimethyl-7-benzofuranyl[[(diethoxyphosphinyl)propylamino]sulfinyl]methylcarbamate]",100 mg/kg,,
"COP(=S)(OC)N(C)[S+]([O-])N(C)C(=O)ON=C(C)SC (centres unmarked) [Example 9, methyl N-[[[[[(dimethoxyphosphinothioyl)methylamino]sulfinyl]methylamino]carbonyl]oxy]ethanimidothioate]",120 mg/kg,24 mg/kg,
"CCOP(=S)(OCC)N(CC)[S+]([O-])N(C)C(=O)ON=C(SC)C(=O)N(C)C (centres unmarked) [Example 22, methyl 2-(dimethylamino)-N-[[[[[(diethoxyphosphinothioyl)ethylamino]sulfinyl]methylamino]carbonyl]oxy]-2-oxoethanimidothioate]",,18 mg/kg,
